The target in test [1] is T1, 5-hydroxytryptamine receptor 1A (Homo sapiens, UniProt P08908).
T1 sequence (P08908 whole entry): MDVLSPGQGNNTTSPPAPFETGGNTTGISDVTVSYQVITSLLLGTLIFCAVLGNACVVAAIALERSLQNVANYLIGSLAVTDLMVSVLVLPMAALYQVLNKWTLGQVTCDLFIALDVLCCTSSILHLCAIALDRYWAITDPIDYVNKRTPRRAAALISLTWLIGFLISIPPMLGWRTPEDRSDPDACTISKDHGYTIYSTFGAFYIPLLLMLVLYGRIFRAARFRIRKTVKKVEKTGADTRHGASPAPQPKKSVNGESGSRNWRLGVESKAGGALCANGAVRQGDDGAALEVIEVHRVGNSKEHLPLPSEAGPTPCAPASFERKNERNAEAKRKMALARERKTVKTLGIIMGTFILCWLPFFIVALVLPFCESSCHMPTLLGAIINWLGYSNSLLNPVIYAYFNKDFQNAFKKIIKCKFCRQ

A further test addresses D(2) dopamine receptor (Homo sapiens, UniProt P14416).
Test [2] has as its target T2, Alpha-1A adrenergic receptor (Homo sapiens, UniProt P35348).
T2 sequence (P35348 whole entry): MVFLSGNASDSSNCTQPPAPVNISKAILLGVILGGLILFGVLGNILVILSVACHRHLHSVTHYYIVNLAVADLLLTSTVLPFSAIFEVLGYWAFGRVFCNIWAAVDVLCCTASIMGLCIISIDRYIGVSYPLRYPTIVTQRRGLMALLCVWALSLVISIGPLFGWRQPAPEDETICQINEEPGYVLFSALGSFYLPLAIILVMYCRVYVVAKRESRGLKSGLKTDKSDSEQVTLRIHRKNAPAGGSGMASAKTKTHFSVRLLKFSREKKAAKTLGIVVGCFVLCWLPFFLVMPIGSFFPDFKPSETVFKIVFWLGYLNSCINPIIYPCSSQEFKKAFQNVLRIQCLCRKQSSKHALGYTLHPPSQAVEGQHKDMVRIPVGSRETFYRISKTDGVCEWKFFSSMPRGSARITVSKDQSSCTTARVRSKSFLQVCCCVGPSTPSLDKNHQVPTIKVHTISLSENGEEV

Test [3] addresses T3, Muscarinic acetylcholine receptor M2 (Homo sapiens, UniProt P08172).
T3 sequence (P08172 whole entry): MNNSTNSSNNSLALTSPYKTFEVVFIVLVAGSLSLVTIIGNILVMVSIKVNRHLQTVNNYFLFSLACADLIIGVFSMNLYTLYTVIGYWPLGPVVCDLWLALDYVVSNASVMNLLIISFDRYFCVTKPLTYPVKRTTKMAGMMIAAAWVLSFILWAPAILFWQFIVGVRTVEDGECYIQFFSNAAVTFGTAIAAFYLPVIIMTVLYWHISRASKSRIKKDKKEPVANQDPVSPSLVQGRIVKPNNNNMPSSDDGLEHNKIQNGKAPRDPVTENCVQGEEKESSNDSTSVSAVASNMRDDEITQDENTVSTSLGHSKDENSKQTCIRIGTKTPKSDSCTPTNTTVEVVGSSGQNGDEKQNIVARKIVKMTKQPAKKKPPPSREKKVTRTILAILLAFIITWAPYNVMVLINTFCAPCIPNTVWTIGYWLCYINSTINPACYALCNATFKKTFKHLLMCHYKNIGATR

Test [4] has as its target T4, Alpha-2A adrenergic receptor (Homo sapiens, UniProt P08913).
T4 sequence (P08913 whole entry): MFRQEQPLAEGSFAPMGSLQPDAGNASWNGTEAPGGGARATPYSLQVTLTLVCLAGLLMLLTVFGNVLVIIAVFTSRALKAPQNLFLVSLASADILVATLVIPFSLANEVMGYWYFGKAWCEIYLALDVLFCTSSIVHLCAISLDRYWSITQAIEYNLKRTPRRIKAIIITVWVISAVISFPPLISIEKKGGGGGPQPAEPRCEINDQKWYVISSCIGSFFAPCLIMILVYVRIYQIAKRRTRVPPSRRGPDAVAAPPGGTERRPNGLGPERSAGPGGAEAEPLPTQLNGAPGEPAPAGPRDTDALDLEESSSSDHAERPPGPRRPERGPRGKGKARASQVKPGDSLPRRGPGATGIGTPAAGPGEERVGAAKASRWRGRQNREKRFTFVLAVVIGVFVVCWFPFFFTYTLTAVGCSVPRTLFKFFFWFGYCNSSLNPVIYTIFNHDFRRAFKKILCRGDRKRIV

Where a name gives a salt, the structure may show the parent alone. Some results are limits rather than exact numbers.

Chain of D(2) dopamine receptor (P14416 whole entry): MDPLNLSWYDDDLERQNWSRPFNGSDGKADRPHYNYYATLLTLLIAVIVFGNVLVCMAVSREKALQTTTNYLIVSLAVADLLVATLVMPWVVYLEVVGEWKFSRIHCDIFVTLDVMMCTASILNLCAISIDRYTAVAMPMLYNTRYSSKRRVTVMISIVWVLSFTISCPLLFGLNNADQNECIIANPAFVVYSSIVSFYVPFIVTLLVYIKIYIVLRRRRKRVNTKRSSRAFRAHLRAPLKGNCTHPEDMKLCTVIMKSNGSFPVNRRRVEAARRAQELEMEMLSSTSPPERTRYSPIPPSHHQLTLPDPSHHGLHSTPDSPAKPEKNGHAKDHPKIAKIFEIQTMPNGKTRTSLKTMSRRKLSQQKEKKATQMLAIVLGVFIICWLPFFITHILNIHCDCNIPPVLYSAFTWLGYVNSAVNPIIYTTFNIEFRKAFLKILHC

One may read the Ki as a dissociation constant, usually derived from enzyme kinetics or from competition with a known ligand. Low values mean a stronger hold on the target, high ones a looser hold on the target. For the molecule `CCc1nn(CCCN2CCN(c3cccc(Cl)c3)CC2)c(=O)n1CCOc1ccccc1` [2-{3-[4-(3-chlorophenyl)piperazin-1-yl]propyl}-5-ethyl-4-(2-phenoxyethyl)-2,4-dihydro-3H-1,2,4-triazol-3-one], the results for the Ki (in test [1]; on D(2) dopamine receptor; in test [2]) were 0.08 µM, 0.91 µM and 0.048 µM, respectively.
Consider `CN(C)Cc1nnc2n1-c1ccc(Cl)cc1C(c1ccccc1)=NC2` [NSC_37632], for which the Ki (in test [1]; at D(2) dopamine receptor; in test [2]; in test [3]; in test [4]) was > 10 µM throughout.
Turning to `COc1ccc(C(CN(C)C)C2(O)CCCCC2)cc1` (stereo not given) [NSC_62923], the Ki (in test [1]; on D(2) dopamine receptor; in test [2]; in test [3]; in test [4]) was > 10 µM throughout.
For the molecule `CNCCC=C1c2ccccc2CCc2ccccc21` [NORTRIPTYLINE], the Ki in test [1] is 0.294 µM; on D(2) dopamine receptor, 2.57 µM; in test [2] it was 0.055 µM; in test [3], 0.037 µM.
As for `Fc1ccc([C@@H]2CCNC[C@H]2COc2ccc3c(c2)OCO3)cc1` [PAROXETINE], the Ki (in test [1]; on D(2) dopamine receptor) was > 10 µM in each case.
Regarding `CN(C)CCCN1c2ccccc2CCc2ccccc21`, the inhibition constant Ki amounted to 5.8 µM in test [1]; 0.62 µM at D(2) dopamine receptor; 0.032 µM in test [2]; 0.046 µM in test [3]; 3.1 µM in test [4].
Regarding `CCc1nn(CCCN2CCN(c3cccc(Cl)c3)CC2)c(=O)n1CC` [NSC_40589], the Ki in test [1] is 0.085 µM; on D(2) dopamine receptor, 2.3 µM; in test [2] it was 0.038 µM; in test [3] it was > 10 µM; in test [4], 0.57 µM.
On to `N[C@H]1CC[C@@H](c2ccc(Cl)c(Cl)c2)c2ccccc21`, for which the inhibitory constant (Ki) was > 10 µM in test [1]; > 10 µM on D(2) dopamine receptor; 1.2 µM in test [2]; 1.43 µM in test [3]; 7.8 µM in test [4].
In the case of `CC(NC(C)(C)C)C(=O)c1cccc(Cl)c1` (stereo not given) [BUPROPION HYDROCHLORIDE], the Ki was > 10 µM in test [1]; > 10 µM on D(2) dopamine receptor; 4.2 µM in test [2]; > 10 µM in test [3]; > 10 µM in test [4].
Consider `CN(C)CCC=C1c2ccccc2CCc2ccccc21`, for which the Ki in test [1] turned out to be 0.45 µM; at D(2) dopamine receptor it was 1.46 µM; in test [2] it was 0.024 µM; in test [4], 0.69 µM.
Regarding `CN(CCCN1c2ccccc2CCc2ccccc21)CC(=O)c1ccc(Cl)cc1` [CAS_23047-25-8], the inhibition constant Ki in test [1] came to 4.6 µM; on D(2) dopamine receptor, 2 µM; in test [2] it was 0.1 µM; in test [3] it was 0.067 µM; in test [4], 2.7 µM.
In the same order, the values of `COc1ccc(OC[C@H]2CN(C)CC[C@@H]2c2ccccc2)cc1` [(3R,4S)-3-(4-Methoxy-phenoxymethyl)-1-methyl-4-phenyl-piperidine] are 2.29 µM, 0.59 µM, 0.65 µM, 0.184 µM and 1.97 µM.
`CNCCCN1c2ccccc2CCc2ccccc21` [Desmethylimipramine] had a Ki on D(2) dopamine receptor of 3.5 µM.
For the molecule `CN(C)CC/C=C1/c2ccccc2COc2ccccc21`, the Ki on D(2) dopamine receptor amounted to 0.36 µM. Against the preceding molecule, the Ki is about 9.7-fold lower.
In the case of `CN[C@@H]1CC[C@@H](c2ccc(Cl)c(Cl)c2)c2ccccc21` [[4-(3,4-Dichloro-phenyl)-1,2,3,4-tetrahydro-naphthalen-1-yl]-methyl-amine], the inhibition constant (Ki) in test [1] was > 10 µM; at D(2) dopamine receptor, > 10 µM; in test [2] it was 0.38 µM; in test [3], 0.63 µM.
In test [2], `CNCCC(Oc1ccccc1C)c1ccccc1` (stereo not given) [Methyl-(3-phenyl-3-o-tolyloxy-propyl)-amine(tomoxetine)] returned a Ki of 3.8 µM.
`NCC[C@H](Oc1ccc(C(F)(F)F)cc1)c1ccccc1` [NORFLUOXETINE]: the inhibition constant Ki was > 10 µM in test [1]; > 10 µM at D(2) dopamine receptor; 3.9 µM in test [2]; 0.81 µM in test [3]; > 10 µM in test [4].

Source of the values: BindingDB's records for doi:10.1007/BF02244985 (Mayo Clinic, 1994).
